The results in this text go back to patent publication US20090105476A1, “Organic Compounds” (Novartis AG, priority 2006, published 2009).

Molecules are shown by their SMILES. pKi: −log10 of the molar value. Counter-ions that a name gives are not always drawn.

In this test the target is adenosine A2A receptor (Homo sapiens, UniProt P29274). Kind of test: A2A receptor agonist assay by the method of L. J. Murphree et al, Molecular Pharmacology 61, 455-462 (2002). The format is binding. Particulars: Mol. Pharmacol. 61, 455-462 (2002). The text has this:
Compounds of formula I and their pharmaceutically acceptable salts are useful as pharmaceuticals. In particular, they activate the adenosine A2A receptor, i.e. they act as A2A receptor agonists.

Sequence of adenosine A2A receptor (P29274 whole entry): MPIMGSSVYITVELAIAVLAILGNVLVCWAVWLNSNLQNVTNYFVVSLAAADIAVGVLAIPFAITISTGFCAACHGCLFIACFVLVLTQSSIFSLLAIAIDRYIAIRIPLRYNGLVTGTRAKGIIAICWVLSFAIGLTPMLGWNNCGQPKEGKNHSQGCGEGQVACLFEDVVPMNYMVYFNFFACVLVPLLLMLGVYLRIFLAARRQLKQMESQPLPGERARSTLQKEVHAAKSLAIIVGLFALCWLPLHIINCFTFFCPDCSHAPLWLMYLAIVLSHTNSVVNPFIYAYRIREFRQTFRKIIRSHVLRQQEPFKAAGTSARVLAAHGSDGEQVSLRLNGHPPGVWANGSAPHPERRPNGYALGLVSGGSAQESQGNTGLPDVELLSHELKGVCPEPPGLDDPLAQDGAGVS

As a reminder, the pKi is the Ki on a negative log10 scale, so that one unit is a factor of ten. A high value points to a low Ki. `CS(=O)(=O)N[C@H]1C[C@@H](n2cnc3c(N)nc(Cl)nc32)[C@H](O)[C@@H]1O` [Example 1, N-[(1S,2R,3S,4R)-4-(6-Amino-2-chloropurin-9-yl)-2,3-dihydroxy-cyclopentyl]-methane-sulfonamide Trifluoroacetate] showed a pKi of 6.24. With `CCC(=O)N[C@H]1C[C@@H](n2cnc3c(NCc4cccc5ccccc45)nc(N4CC[C@@H](NC(=O)N[C@@H]5CCNC5)C4)nc32)[C@H](O)[C@@H]1O` [Example 55, N-((1S,2R,3S,4R)-2,3-Dihydroxy-4-{6-[(naphthalen-1-ylmethyl)-amino]-2-[(R)-3-((R)-3-pyrrolidin-3-ylureido)-pyrrolidin-1-yl]-purin-9-yl}-cyclopentyl)-propionamide Trifluoroacetate], the pKi is 8.40. As for `O=C(N[C@H]1C[C@@H](n2cnc3c(NCC(c4ccccc4)c4ccccc4)nc(Cl)nc32)[C@H](O)[C@@H]1O)C1CC1` [Example 12, Cyclopropanecarboxylic acid {(1S,2R,3S,4R)-4-[2-chloro-6-(2,2-diphenyl-ethylamino)-purin-9-yl]-2,3-dihydroxy-cyclopentyl}-amide], the pKi is 8.52.

`CCC(=O)N[C@H]1C[C@@H](n2cnc3c(NCC(c4ccccc4)c4ccccc4)nc(N4CC[C@@H](NC(=O)N[C@@H]5CCNC5)C4)nc32)[C@H](O)[C@@H]1O` [Example 39, N-((1S,2R,3S,4R)-4-4-{6-(2,2-Diphenyl-ethylamino)-2-[(R)-3-((R)-3-pyrrolidin-3-yl)ureido)-pyrrolidin-1-yl]-purin-9-yl}-2,3-dihydroxy-cyclopentyl)-propionamide Trifluoroacetate] had a negative-log Ki (pKi) of 8.52. Take `CCC(=O)N[C@H]1C[C@@H](n2cnc3c(NC(CC)CC)nc(NC4CCC(N)CC4)nc32)[C@H](O)[C@@H]1O` (stereo partly drawn) [Example 20, N-{(1S,2R,3 S,4R)-4-[2-(4-Amino-cyclohexylamino)-6-(1-ethyl-propylamino)-purin-9-yl]-2,3-dihydroxy-cyclopentyl}-propionamide]: the pKi was 8.10. The molecule `CCC(=O)N[C@H]1C[C@@H](n2cnc3c(N)nc(NCCc4ccccc4)nc32)[C@H](O)[C@@H]1O` [Example 2, N-[(1S,2R,3S,4R)-4-(6-Amino-2-phenethlamino-purin-9-yl)-2,3-dihydroxy-cyclopentyl]-propionamide trifluoroacetate] had a pKi of 7.74. `CCC(=O)N[C@H]1C[C@@H](n2cnc3c(NCC(c4ccccc4)c4ccccc4)nc(Cl)nc32)[C@H](O)[C@@H]1O` [Example 4, N-{(1S,2R,3S,4R)-4-[2-chloro-6-(2,2-diphenyl-ethylamino)purin-9-yl]-2,3-dihydroxy-cyclopentyl}-propionamide] gave a pKi of 7.24. `CCC(=O)N[C@H]1C[C@@H](n2cnc3c(NC(CC)CC)nc(Cl)nc32)[C@H](O)[C@@H]1O` [Example 14, N-{(1S,2R,3S,4R)-4-[2-chloro-6-(1-ethyl-propylamino)-purin-9-yl]-2,3-dihydroxy-cyclopentyl}-propionamide] gave a pKi of 6.16.

The molecule `CCCCC#Cc1nc(NCC(c2ccccc2)c2ccccc2)c2ncn(C3CC(NC(=O)CC)C(O)C3O)c2n1` [Example 6, N-{(1S,2R,3S,4R)-4-[6-(2,2-Diphenyl-ethylamino-2-hex-1-ynyl-purin-9-yl]-2,3-dihydroxy-cyclopentyl}-propionamide] showed a pKi of 8.10.

With `CC(=O)N[C@H]1C[C@@H](n2cnc3c(NCC(c4ccccc4)c4ccccc4)nc(C(=O)NCCNC(=O)NC4CCN(c5ccccn5)CC4)nc32)[C@H](O)[C@@H]1O` [Example 42, 9-((1R,2S,3R,4S)-4-acetylamino-2,3-dihydroxy-cyclopentyl)-6-(2,2-diphenyl-ethylamino)-9H-purine-2-carboxylic acid {2-[3-(3,4,5,6-tetra-hydro-2H-[1,2′]bipyridinyl-4-yl)-ureido]-ethyl}-amide trifluoroacetate], the pKi is 8.70.

`CCC(=O)N[C@H]1C[C@@H](n2cnc3c(NCCC(c4ccccc4)c4ccccc4)nc(NCCc4cn(CC)cn4)nc32)[C@H](O)[C@@H]1O` [Example 61, N-{(1S,2R,3S,4R)-4-(6-(3,3-diphenyl-propyl-amino)-2-[2-(1-ethyl-1H-imidazol-4-yl)-ethylamino]-purin-9-yl}-2,3-dihydroxy-cyclopentyl)-propionamide trifluoroacetate] had a pKi of 8.05.
